This is an account of results in patent US20250051275A1, “PYRROLE DERIVATIVE OR PHARMACEUTICALLY OR SITOLOGICALLY ACCEPTABLE SALTS THEREOF, AND COMPOSITION FOR PREVENTION, AMELIORATION OR TREATMENT OF GASTROINTESTINAL DISORDERS COMPRISING SAME AS ACTIVE INGREDIENT” (HANA PHARM CO., LTD., priority 2021, published 2025).

In series [1] the test system is rats (Sprague-Dawley Rats). The experiment in a line: Acute oral toxicity in rats. It is filed as in vivo. The conditions noted are these: female rats. An excerpt: An attempt was made to evaluate the acute toxicity of the compound of Example 7 on the fumarate form (Example 41). Twenty female rats (Sprague-Dawley Rats) were obtained, acclimatized, and distributed into a total of four groups, five rats per test group. As feed, irradiated solid feed was allowed to be freely consumed, and, as water, tap water disinfected with an ultraviolet sterilizer and micro-filtration device was placed in a polycarbonate drinking bottle and allowed to be freely consumed. Rats were raised in an animal breeding area maintained at a temperature of 23±3° C., with a relative humidity of 50±20%, a ventilation frequency of 10 to 15 times/hr, for a lighting time of 12 hours (lights on at 8 a.m. to lights off at 8 p.m.), and with an illuminance of 150 to 300 Lux. As the administration, oral administration, the clinically planned route, was selected for evaluation, and, as the administration dose, the highest dose was set at 600 mg/kg, referring to the results of vonoprazan.

Series [2] is described as follows: Pharmacokinetics in rats according to deuterium substitution. The class given is in vivo. Particulars: male rats, oral 10 mg/kg; for concentration at 0.5 h / concentration at 1 h / concentration at 2 h / concentration at 5 h / concentration at 8 h: Sprague-Dawley, rat, plasma, read-out: Blood concentration; for concentration at 0.5 h: 0.5 hr after administration; for concentration at 1 h: 1 hr after administration; for concentration at 2 h: 2 hr after administration; for concentration at 5 h: 5 hr after administration; for concentration at 8 h: 8 hr after administration. The procedure:
In order to evaluate the impact on the deuterium substituent in terms of pharmacokinetics, the blood concentrations of Example 35 and Comparative Example 2 in rats were measured and compared. Six male rats (Sprague-Dawley Rats) were obtained, acclimatized, and then distributed into two groups with three rats per test group. As feed, irradiated solid feed was allowed to be freely consumed, and, as water, tap water disinfected with an ultraviolet sterilizer and micro-filtration device was placed in a polycarbonate drinking bottle and allowed to be freely consumed. Rats were raised in an animal breeding area maintained at a temperature of 23±3° C., with a relative humidity of 50±20%, a ventilation frequency of 10 to 15 times/hr, for a lighting time of 12 hours (lights on at 8 a.m. to lights off at 8 p.m.), and with an illuminance of 150 to 300 Lux.
Blood samples were obtained from the jugular vein at 0.5, 1, 2, 5, and 8 hours after drug administration, respectively. Blood samples were centrifuged (2 to 8° C., 3,200 g, 10 minutes) to obtain plasma. The amount of administered compound into the plasma sample was quantified by using LC-MS/MS.

Series [3] can be described thus: Storage stability (related substance identification test). It is filed as physicochemical. Particulars: for storage stability: stored at −2 to 8° C., in % (unit assumed). An excerpt: An attempt was made to evaluate the storage stability over time of the compound of Example 7 of the present invention and the compound of Comparative Example 1 (which is the deuterium-unsubstituted form of the compound of Example 7) depending on the presence of deuterium substitution.

`O=C(O)/C=C/C(=O)O.[2H]C([2H])([2H])NCc1cc(-c2ccccc2F)n(S(=O)(=O)c2ccc(F)cc2)c1` [Example 41, N-((5-(2-fluorophenyl)-1-((4-fluorophenyl)sulfonyl)-1H-pyrrol-3-yl)methyl)methane-d3-amine Fumarate]: the “Survival rate (%)” value in series [1] (single oral dose 50 mg/kg) stood at 100%; in series [1] (single oral dose 200 mg/kg) it was 100%; in series [1] (single oral dose 400 mg/kg) it was 100%; in series [1] (single oral dose 600 mg/kg), 0%.

With `[2H]C([2H])([2H])NCc1cn(S(=O)(=O)c2cccnc2)c(-c2ccc(F)cc2F)c1OC` [Example 35, N-((5-(2,4-difluorophenyl)-4-methoxy-1-(pyridin-3-ylsulfonyl)-1H-pyrrol-3-yl)methyl)methan-d3-amine], in series [2], the concentration at 0.5 h amounted to 302 ng/mL, the concentration at 1 h was 254 ng/mL, the concentration at 2 h came to 199 ng/mL and the concentration at 5 h stood at 22.6 ng/mL. Moreover, the concentration at 8 h in series [2] was found to be 4.8 ng/mL. Further, the “blood concentration level higher as compared to Comparative Example 2” value in series [2] (0.5 hours after administration) worked out at 5 times. Besides, in series [2] (after 1 hour), the “blood concentration level higher as compared to Comparative Example 2” value is reported as “at least 2 times”. The “blood concentration level higher as compared to Comparative Example 2” value in series [2] (after 2 hours) is listed as “at least 2 times”.

On to `CNCc1cc(-c2ccccc2F)n(S(=O)(=O)c2ccc(F)cc2)c1` [Comparative Example 1, reference compound], for which the “storage stability, Results” value in series [3] (stored at −2 to 8° C. for 3 months) was “Unstable”. Also, the storage stability in series [3] (1st week) is 90.61; in series [3] (2nd week), 81.40; in series [3] (3 months) it was 53.8; in series [3] (3rd week), 76.47; in series [3] (4th week), 70.39; in series [3] (Initial), 97.99.

Take `CNCc1cn(S(=O)(=O)c2cccnc2)c(-c2ccc(F)cc2F)c1OC` [Comparative Example 2, reference compound]: in series [2], the concentration at 0.5 h was determined as 59.7 ng/mL, the concentration at 1 h worked out at 116 ng/mL, the concentration at 2 h worked out at 83.8 ng/mL and the concentration at 5 h stood at 12.8 ng/mL. Moreover, the concentration at 8 h in series [2] stood at 5.1 ng/mL.
